Test results taken from PubChem BioAssay (NCI).
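GI50: concentration for 50% inhibition of growth. TGI denotes the concentration required for complete inhibition of growth.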

What was measured:
Test in all cases: growth of human tumour cells (NCI), 384-well format
[1] = tested on: UACC-257 melanoma
[2] = tested on: MDA-MB-231 breast
[3] = tested on: CAKI-1 renal
[4] = tested on: SK-MEL-28 melanoma
[5] = tested on: NCI-H522 lung
[6] = tested on: COLO 205 colon
[7] = tested on: NCI/ADR-RES ovarian
[8] = tested on: OVCAR-4 ovarian
[9] = tested on: SF-268 CNS
[10] = tested on: 786-0 renal
[11] = tested on: MOLT-4 leukemia
[12] = tested on: NCI-H23 lung
[13] = tested on: NCI-H322M lung
[14] = tested on: SK-OV-3 ovarian
[15] = tested on: SR leukemia
[16] = tested on: SW-620 colon
[17] = tested on: T-47D breast
[18] = tested on: CCRF-CEM leukemia
[19] = tested on: RPMI-8226 leukemia
[20] = tested on: SN12C renal
[21] = tested on: EKVX NSCLC
[22] = tested on: MDA-MB-435 melanoma
[23] = tested on: BT-549 breast
[24] = tested on: HL-60(TB) leukemia
[25] = tested on: OVCAR-3 ovarian
[26] = tested on: SF-295 CNS
[27] = tested on: M14 melanoma
[28] = tested on: OVCAR-5 ovarian
[29] = tested on: A498 renal
[30] = tested on: K-562 leukemia
[31] = tested on: RXF 393 renal
[32] = tested on: HOP-62 NSCLC
[33] = tested on: NCI-H226 lung
[34] = tested on: KM12 colon
[35] = tested on: SNB-19 CNS
[36] = tested on: PC-3 prostate
[37] = tested on: SNB-75 CNS
[38] = tested on: IGROV1 ovarian
[39] = tested on: HCT-15 colon
[40] = tested on: ACHN renal
[41] = tested on: HT29 colon
[42] = tested on: DU-145 prostate
[43] = tested on: TK-10 renal
[44] = tested on: LOX IMVI melanoma
[45] = tested on: UO-31 renal
[46] = tested on: MALME-3M melanoma
[47] = tested on: HOP-92 NSCLC
[48] = tested on: HS 578T breast
[49] = tested on: UACC-62 melanoma
[50] = tested on: NCI-H460 NSCLC
[51] = tested on: SF-539 CNS
[52] = tested on: A549 NSCLC
[53] = tested on: OVCAR-8 ovarian
[54] = tested on: HCC-2998 colon
[55] = tested on: MDA-MB-468 breast
[56] = tested on: SK-MEL-5 melanoma
[57] = tested on: MCF7 breast
[58] = tested on: U251 glioblastoma

In the case of `Nc1ncnc2c1ccn2[C@@H]1O[C@H]([C@H](O)c2ccc(Cl)c(F)c2)[C@@H](O)[C@H]1O`, the GI50 [1] is reported as > 100 µM, the TGI [1] is reported as > 100 µM and the GI50 [2] is reported as > 100 µM. For the same molecule, the TGI [2] was > 100 µM, the GI50 [3] was > 100 µM and the TGI [3] was > 100 µM. For the same molecule, the GI50 [4] was > 100 µM, the TGI [4] was > 100 µM and the GI50 [5] was > 100 µM. The TGI [5] was > 100 µM, the GI50 [6] was > 100 µM and the TGI [6] was > 100 µM. For the same molecule, the GI50 [7] was > 100 µM, the TGI [7] was > 100 µM and the GI50 [8] was < 0.01 µM. The TGI [8] was > 100 µM, the GI50 [9] was > 100 µM and the TGI [9] was > 100 µM. The GI50 [10] was 72.9 µM, the TGI [10] was > 100 µM and the GI50 [11] was < 0.01 µM. For the same molecule, the GI50 [12] was 52.9 µM, the TGI [12] was > 100 µM and the GI50 [13] was > 100 µM. For the same molecule, the TGI [13] was > 100 µM, the GI50 [14] was 50.3 µM and the TGI [14] was > 100 µM. For the same molecule, the GI50 [15] was < 0.01 µM, the TGI [15] was > 100 µM and the GI50 [16] was > 100 µM. For the same molecule, the TGI [16] was > 100 µM, the GI50 [17] was < 0.01 µM and the TGI [17] was > 100 µM. For the same molecule, the GI50 [18] was 33.9 µM, the TGI [18] was > 100 µM and the GI50 [19] was 12.6 µM. For the same molecule, the TGI [19] was > 100 µM, the GI50 [20] was 41.6 µM and the TGI [20] was > 100 µM. The GI50 [21] was 83.9 µM, the TGI [21] was > 100 µM and the GI50 [22] was > 100 µM. The TGI [22] was > 100 µM, the GI50 [23] was > 100 µM and the TGI [23] was > 100 µM. For the same molecule, the GI50 [24] was 77.1 µM, the TGI [24] was > 100 µM and the GI50 [25] was > 100 µM. The TGI [25] was > 100 µM, the GI50 [26] was > 100 µM and the TGI [26] was > 100 µM. The GI50 [27] was > 100 µM, the TGI [27] was > 100 µM and the GI50 [28] was > 100 µM. The TGI [28] was > 100 µM, the GI50 [29] was 85.1 µM and the TGI [29] was > 100 µM. For the same molecule, the GI50 [30] was 32.7 µM, the TGI [30] was > 100 µM and the GI50 [31] was > 100 µM. The TGI [31] was > 100 µM, the GI50 [32] was > 100 µM and the TGI [32] was > 100 µM. For the same molecule, the GI50 [33] was > 100 µM, the TGI [33] was > 100 µM and the GI50 [34] was < 0.01 µM. The TGI [34] was > 100 µM, the GI50 [35] was > 100 µM and the TGI [35] was > 100 µM. The GI50 [36] was 97.7 µM, the TGI [36] was > 100 µM and the GI50 [37] was > 100 µM. The TGI [37] was > 100 µM, the GI50 [38] was 28.7 µM and the TGI [38] was > 100 µM. The GI50 [39] was > 100 µM, the TGI [39] was > 100 µM and the GI50 [40] was > 100 µM. For the same molecule, the TGI [40] was > 100 µM, the GI50 [41] was 37.4 µM and the TGI [41] was > 100 µM. The GI50 [42] was > 100 µM, the TGI [42] was > 100 µM and the GI50 [43] was > 100 µM. For the same molecule, the TGI [43] was > 100 µM, the GI50 [44] was > 100 µM and the TGI [44] was > 100 µM. The GI50 [45] was > 100 µM, the TGI [45] was > 100 µM and the GI50 [46] was 40.9 µM. For the same molecule, the TGI [46] was > 100 µM, the GI50 [47] was > 100 µM and the TGI [47] was > 100 µM. The GI50 [48] was > 100 µM, the TGI [48] was > 100 µM and the GI50 [49] was > 100 µM. The TGI [49] was > 100 µM, the GI50 [50] was < 0.01 µM and the TGI [50] was > 100 µM. For the same molecule, the GI50 [51] was > 100 µM, the TGI [51] was > 100 µM and the GI50 [52] was > 100 µM. For the same molecule, the TGI [52] was > 100 µM, the GI50 [53] was > 100 µM and the TGI [53] was > 100 µM.
`CN(C)CCNC(=O)NC[C@H]1CC[C@@H]2[C@H](O1)c1cc(C(F)(F)F)ccc1N[C@H]2c1ccccc1` showed a GI50 [1] of 0.375 µM, a TGI [1] of 15.1 µM and a GI50 [2] of 0.235 µM. The TGI [2] was 13.8 µM, the GI50 [3] was 0.223 µM and the TGI [3] was 26.3 µM. For the same molecule, the GI50 [5] was 0.0298 µM, the TGI [5] was 0.0736 µM and the GI50 [6] was 0.0394 µM. The TGI [6] was 0.156 µM, the GI50 [7] was 4.3 µM and the TGI [7] was 18.9 µM. The GI50 [8] was 0.37 µM, the TGI [8] was 10.8 µM and the GI50 [9] was 0.289 µM. It also gave a TGI [9] of 16.4 µM, a GI50 [10] of 0.528 µM and a TGI [10] of 19 µM. The GI50 [11] was 0.0696 µM, the TGI [11] was 0.193 µM and the GI50 [12] was 0.124 µM. It also gave a TGI [12] of 1.98 µM, a GI50 [14] of 0.0425 µM and a TGI [14] of 18.1 µM. The GI50 [15] was 0.0204 µM, the TGI [15] was 0.0416 µM and the GI50 [16] was 0.0894 µM. For the same molecule, the TGI [16] was 16 µM, the GI50 [17] was 0.325 µM and the TGI [17] was 12.9 µM. For the same molecule, the GI50 [18] was 0.0289 µM, the TGI [18] was 0.057 µM and the GI50 [54] was 0.0932 µM. For the same molecule, the TGI [54] was 11.7 µM, the GI50 [19] was 0.0193 µM and the TGI [19] was 0.0389 µM. The GI50 [20] was 5.12 µM, the TGI [20] was 31.3 µM and the GI50 [21] was 0.261 µM. It also gave a TGI [21] of 16.3 µM, a GI50 [22] of 0.0218 µM and a TGI [22] of 0.0458 µM. It also gave a GI50 [23] of 0.113 µM, a TGI [23] of 10.4 µM and a GI50 [24] of 0.0325 µM. It also gave a TGI [24] of 0.0824 µM, a GI50 [25] of 0.0375 µM and a TGI [25] of 0.164 µM. The GI50 [26] was 0.171 µM, the TGI [26] was 2.06 µM and the GI50 [27] was 0.0314 µM. The TGI [27] was 0.0923 µM, the GI50 [28] was 0.38 µM and the TGI [28] was 12.7 µM. The GI50 [29] was 0.0883 µM, the TGI [29] was 18.7 µM and the GI50 [30] was 0.0533 µM. For the same molecule, the TGI [30] was 0.257 µM, the GI50 [31] was 0.0784 µM and the TGI [31] was 13.3 µM. It also gave a GI50 [32] of 0.618 µM, a TGI [32] of 18.2 µM and a GI50 [33] of 2.76 µM. The TGI [33] was 23.1 µM, the GI50 [34] was 0.128 µM and the TGI [34] was 11.8 µM. For the same molecule, the GI50 [35] was 0.163 µM, the TGI [35] was 19.3 µM and the GI50 [55] was 0.0296 µM. The TGI [55] was 0.0647 µM, the GI50 [36] was 0.128 µM and the TGI [36] was 17.7 µM. The GI50 [37] was 0.152 µM, the TGI [37] was 16.2 µM and the GI50 [38] was 10.5 µM. For the same molecule, the TGI [38] was 27 µM, the GI50 [39] was 0.303 µM and the TGI [39] was 12 µM. The GI50 [40] was 11.3 µM, the TGI [40] was 23.5 µM and the GI50 [41] was 0.168 µM. The TGI [41] was 0.443 µM, the GI50 [42] was 0.279 µM and the TGI [42] was 4.69 µM. The GI50 [56] was 0.0398 µM, the TGI [56] was 0.37 µM and the GI50 [43] was 14 µM. The TGI [43] was 28.7 µM, the GI50 [44] was 1.17 µM and the TGI [44] was 17.6 µM. It also gave a GI50 [45] of 20 µM, a TGI [45] of 85.6 µM and a GI50 [46] of 0.387 µM. It also gave a TGI [46] of 15 µM, a GI50 [57] of 0.0649 µM and a TGI [57] of 14 µM. The GI50 [47] was 0.206 µM, the TGI [47] was 16.1 µM and the GI50 [48] was 0.036 µM. It also gave a TGI [48] of 0.131 µM, a GI50 [49] of 0.056 µM and a TGI [49] of 14.5 µM. It also gave a GI50 [50] of 0.036 µM, a TGI [50] of 0.13 µM and a GI50 [51] of 0.0937 µM. For the same molecule, the TGI [51] was 10.8 µM, the GI50 [52] was 0.124 µM and the TGI [52] was 16.9 µM. The GI50 [53] was 0.0634 µM, the TGI [53] was 16.6 µM and the GI50 [58] was 0.0803 µM. It also gave a TGI [58] of 18.1 µM.
